Results: patent US11648248B1 (King Abdulaziz University, priority 2022, dated 2023)
≈ marks a conversion by molar mass, not a printed value. Like-named read-outs stand apart in the source and are kept apart here.

How the values were obtained:
Assay type in all cases: cell-based
[1] = tested on: Cephalosporin-resistant Streptococcus pneumoniae ATCC-700677; assay: MIC of active MY compounds; settings: ATCC700677, read-out: MIC S. pneumoniae ATCC 700677
Text: (§1) Based upon the initial results obtained, the active compounds were further screened against additional clinical isolates of methicillin-sensitive S. aureus (MSSA), methicillin-resistant S. aureus (MRSA), vancomycin-resistant S. aureus (VRSA), Staphylococcus epidermidis, vancomycin-resistant Enterococcus faecium (VRE), vancomycin-resistant Enterococcus faecalis (VRE) and Streptococcus pneumoniae, as presented in Table 2. Additionally, we examined whether the compounds were bacteriostatic (inhibit bacteria from growing) or bactericidal (kill bacteria) by determining the minimum bactericidal concentration (MBC). The MBC was determined by plating 5 μL from each well where no growth was present (in the MIC plates) onto tryptic soya agar plates and incubating plates at 37° C. for 24 hours. The MBC was categorized as the lowest concentration that generated a 99.9% reduction in bacterial colony-forming units (Table 3).
(§2) The minimum inhibitory concentrations (MICs) of the tested compounds and control drugs; linezolid, vancomycin, gentamicin (antibiotics) and fluconazole and 5-fluorocytosine (5-FC) (antifungal drugs) were determined using the broth microdilution method, according to guidelines outlined by the Clinical and Laboratory Standards Institute (CLSI)^1, 2, 3 against clinically-relevant bacterial (methicillin-resistant Staphylococcus aureus (MRSA), Escherichia coli and Clostridium difficile strains) and fungal (Candida albicans) strain. S. aureus and E. coli were grown aerobically overnight on tryptone soy agar plates at 37° C. C. difficile was grown anaerobically on brain heart infusion supplemented agar at 37° C. for 48 hours. C. albicans was grown aerobically overnight on yeast peptone dextrose (YPD) agar plate at 35° C. Afterwards, a bacterial solution equivalent to 0.5 McFarland standard was prepared and diluted in cation-adjusted Mueller-Hinton broth (CAMHB) (for S. aureus and E. coli) to achieve a bacterial concentration of about 5×10^5 CFU/mL. C. difficile was diluted in brain heart infusion supplemented broth, supplemented with yeast extract, hemin and vitamin K to achieve a bacterial concentration of about 5×10^5 CFU/mL. C. albicans was diluted in Roswell Park Memorial Institute (RPMI 1640) medium with glutamine and without bicarbonate (GIBCO by Life Technologies, Green Island, N.Y., USA) which was buffered to pH 7.0 with 0.165 M of [3-(N-morpholino) propanesulfonic acid] (MOPS) (dot scientific inc., Burton, Mich., USA) to achieve a fungal concentration of about 1.5×10^3 CFU/mL. Compounds and control drugs were added in the first row of the 96-well plates and serially diluted with the corresponding media containing bacteria/fungi. Plates were then, incubated aerobically at 37° C. for 18-20 hours (for S. aureus and E. coli). C. difficile was incubated anaerobically at 37° C. for 48 hours. C. albicans was incubated aerobically at 37° C. for 24 hours.

[2] = tested on: Vancomycin-resistant Staphylococcus aureus (VRSA12); assay: MIC of active MY compounds; settings: read-out: MIC VRSA12
Text: as §1, §2

[3] = tested on: Vancomycin-resistant Enterococcus fecalis ATCC-51299 (VRE ATCC-51299); assay: MIC of active MY compounds; settings: read-out: MIC VRE ATCC-51299
Text: as §1, §2

[4] = tested on: Methicillin-sensitive Staphylococcus aureus (MSSA NRS-107); assay: MIC of active MY compounds; settings: read-out: MIC MSSA NRS-107
Text: as §1, §2

[5] = tested on: Methicillin-resistant Staphylococcus aureus NRS384 (MRSA USA300); assay: MIC broth microdilution, initial screening
Description: The minimum inhibitory concentrations (MICs) of the tested compounds and control drugs (linezolid, vancomycin, gentamicin (antibiotics) and fluconazole and 5-fluorocytosine (5-FC) (antifungal drugs)) were determined using the broth microdilution method, according to guidelines outlined by the Clinical and Laboratory Standards Institute (CLSI, Clinical and Laboratory Standards Institute, Methods for antimicrobial susceptibility testing of anaerobic bacteria; approved standard, M11-A8. 8th ed., 2012; CLSI, Clinical and Laboratory Standards Institute. M27-A3 Reference Method for Broth Dilution Antifungal Susceptibility Testing of Yeasts; Approved Standard—Third Edition, Wayne, Pa., 2008) against clinically-relevant bacterial (methicillin-resistant Staphylococcus aureus (MRSA), Escherichia coli, and C. difficile strains) and fungal (Candida albicans) strains. S. aureus and E. coli were grown aerobically overnight on tryptone soy agar plates at 37° C. C. difficile was grown anaerobically on brain heart infusion supplemented agar at 37° C. for 48 hours. C. albicans was grown aerobically overnight on yeast peptone dextrose (YPD) agar plate at 35° C. Afterwards, a bacterial solution equivalent to 0.5 McFarland standard was prepared and diluted in cation-adjusted Mueller-Hinton broth (CAMHB) (for S. aureus and E. coli) to achieve a bacterial concentration of about 5×10^5 CFU/mL. C. difficile was diluted in brain heart infusion supplemented broth, supplemented with yeast extract, hemin and vitamin K to achieve a bacterial concentration of about 5×10^5 CFU/mL. C. albicans was diluted in Roswell Park Memorial Institute (RPMI 1640) medium with glutamine and without bicarbonate (GIBCO by Life Technologies, Green Island, N.Y., USA) which was buffered to pH 7.0 with 0.165 M of [3-(N-morpholino) propanesulfonic acid] (MOPS) (DOT Scientific Inc., Burton, Mich., USA) to achieve a fungal concentration of about 1.5×10^3 CFU/mL. Compounds and control drugs were added in the first row of the 96-well plates and serially diluted with the corresponding media containing bacteria. Plates were then incubated aerobically at 37° C. for 18-20 hours (for S. aureus and E. coli). C. difficile was incubated anaerobically at 37° C. for 48 hours. C. albicans was incubated aerobically at 37° C. for 24 hours.
as §2, with “acid]” for “acid] (MOPS) (dot scientific inc., Burton, Mich., USA) to achieve a fungal concentration of about 1.5×10^3 CFU/mL. Compounds and control drugs were added in the first row of the 96-well plates and serially diluted with the corresponding media containing bacteria/fungi. Plates were then, incubated aerobically at 37° C. for 18-20 hours (for S. aureus and E. coli). C. difficile was incubated anaerobically at 37° C. for 48 hours. C. albicans was incubated aerobically at 37° C. for 24 hours.”

[6] = MRSA NRS384 (USA300), broth microdilution, 18-20 hours, read-out: minimum inhibitory concentration (MIC) S. aureus (MRSA USA300)
[7] = read-out: minimum inhibitory concentration (MIC) S. aureus (MRSA USA300), MRSA NRS384 (USA300), broth microdilution, 18-20 hours

Row | Compound | MIC [1] | MIC [2] | MIC [3] | MIC [4] | MIC [5, 6] | MIC [5, 7] | MIC ([5]; read-out: minimum inhibitory concentration (MIC) S. aureus (MRSA USA300))
1 | CC(=O)NC[C@H]1CN(c2ccc(N3CCOCC3)c(F)c2)C(=O)O1 [Linezolid, reference compound] | 1 µg/mL | 1 µg/mL | 1 µg/mL | 1 µg/mL | 1 µg/mL (≈ 2.96 µM) | – | –
2 | O=C(Nc1cccc(Nc2ccc(Cl)nn2)c1)Nc1ccc(Cl)c(Cl)c1 [MY14, 1-(3-((6-chloropyridazin-3-yl)amino)phenyl)-3-(3,4-dichlorophenyl)urea] | 4 µg/mL | 4 µg/mL | 64 µg/mL | 4 µg/mL | – | – | –
3 | CNC(=O)c1cc(Oc2ccc(NC(=O)Nc3ccc(Cl)c(C(F)(F)F)c3)cc2)ccn1 [Sorafenib, reference compound] | 4 µg/mL | 2 µg/mL | > 64 µg/mL | 8 µg/mL | 4 µg/mL (≈ 8.61 µM) | – | –
4 | O=C(Nc1ccc(Oc2ccc(=O)[nH]n2)cc1)Nc1ccc(Cl)c(C(F)(F)F)c1 [MY31, 1-(4-chloro-3-(trifluoromethyl)phenyl)-3-(4-((6-oxo-1,6-dihydropyridazin-3-yl)oxy)phenyl)urea] | 0.5 µg/mL | 1 µg/mL | 2 µg/mL | 0.5 µg/mL | – | 0.5 to 1 µg/mL (≈ 1.18 to 2.35 µM) | –
5 | O=C(Nc1ccc(-c2ccc(=O)[nH]n2)cc1)Nc1ccc(Cl)c(Cl)c1 [MY21, 1-(3,4-dichlorophenyl)-3-(4-(6-oxo-1,6-dihydropyridazin-3-yl)phenyl)urea] | 2 µg/mL | 1 µg/mL | 4 µg/mL | 1 µg/mL | – | 0.5 to 1 µg/mL (≈ 1.33 to 2.67 µM) | –
6 | O=C(Nc1ccc(Oc2ccc(=O)[nH]n2)cc1)Nc1ccc(Cl)c(Cl)c1 [MY24, 1-(3,4-dichlorophenyl)-3-(4-((6-oxo-1,6-dihydropyridazin-3-yl)oxy)phenyl)urea] | 2 µg/mL | 2 µg/mL | 4 µg/mL | 1 µg/mL | – | 0.5 to 1 µg/mL (≈ 1.28 to 2.56 µM) | –
7 | CN[C@H](CC(C)C)C(=O)N[C@H]1C(=O)N[C@@H](CC(N)=O)C(=O)N[C@H]2C(=O)N[C@H]3C(=O)N[C@H](C(=O)N[C@H](C(=O)O)c4cc(O)cc(O)c4-c4cc3ccc4O)[C@H](O)c3ccc(c(Cl)c3)Oc3cc2cc(c3O[C@@H]2O[C@H](CO)[C@@H](O)[C@H](O)[C@H]2O[C@H]2C[C@](C)(N)[C@H](O)[C@H](C)O2)Oc2ccc(cc2Cl)[C@H]1O [Vancomycin, reference compound] | 1 µg/mL | 64 µg/mL | 32 µg/mL | 2 µg/mL | – | – | 1 µg/mL (≈ 0.69 µM)
